35 compounds from patent US9932340B2, “Substituted indoles” (AbbVie Inc., priority 2014, dated 2018) can be followed below.

Each structure is given as a SMILES string. Where only a bound is given, the exact number is not on record here.

The target of the assay is SUV420H1 enzyme (Homo sapiens, UniProt Q4FZB7). Briefly: TR-FRET SAH SUV420H1 enzyme inhibition assay. The format is biochemical. The note with it: Histone Peptide H4(8-30)me1 and SAM, overnight at room temp, TR-FRET detection of SAH, read-out: TR-FRET SAH_SUV420H1 IC50. The method, boiled down: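 SUV420H1 (90 nM) preincubated 30 min with compound (3-fold dilutions, 50 to 0.00075 μM), then H4(8-30)me1 peptide 5 nM and SAM 4 nM added, overnight at room temp. SAH product detected by TR-FRET with Tb anti-SAH antibody and Oregon Green-SAH in RIPA buffer, 4 h; IC50 from Hill fit, asymptotes fixed 0-100%.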
SUV420H1 enzyme, sequence (Q4FZB7 whole entry): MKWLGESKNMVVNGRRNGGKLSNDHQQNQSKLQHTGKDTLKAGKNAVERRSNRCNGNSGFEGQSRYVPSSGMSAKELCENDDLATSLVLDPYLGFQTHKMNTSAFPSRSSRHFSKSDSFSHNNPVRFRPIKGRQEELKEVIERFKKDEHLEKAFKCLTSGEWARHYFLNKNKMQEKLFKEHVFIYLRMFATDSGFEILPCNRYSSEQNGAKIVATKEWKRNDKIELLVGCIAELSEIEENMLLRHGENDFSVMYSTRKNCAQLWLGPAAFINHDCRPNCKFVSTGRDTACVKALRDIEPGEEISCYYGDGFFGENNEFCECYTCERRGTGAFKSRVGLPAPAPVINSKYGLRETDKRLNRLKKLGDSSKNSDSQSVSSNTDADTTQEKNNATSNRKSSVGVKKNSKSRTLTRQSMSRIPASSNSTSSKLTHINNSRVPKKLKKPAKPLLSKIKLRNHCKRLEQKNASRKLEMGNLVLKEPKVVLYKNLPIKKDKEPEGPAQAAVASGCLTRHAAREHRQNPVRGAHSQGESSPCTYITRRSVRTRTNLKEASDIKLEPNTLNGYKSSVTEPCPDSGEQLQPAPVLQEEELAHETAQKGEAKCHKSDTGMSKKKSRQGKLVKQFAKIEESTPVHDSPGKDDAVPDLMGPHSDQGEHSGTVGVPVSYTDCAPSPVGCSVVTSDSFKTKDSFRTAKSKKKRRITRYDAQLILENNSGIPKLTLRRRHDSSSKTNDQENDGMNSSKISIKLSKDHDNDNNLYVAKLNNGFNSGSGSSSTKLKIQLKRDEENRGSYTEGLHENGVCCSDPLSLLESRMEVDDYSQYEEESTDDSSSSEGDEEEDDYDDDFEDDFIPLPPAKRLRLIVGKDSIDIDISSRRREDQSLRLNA
Background: TR-FRET usually uses a lanthanide donor and a delayed reading to cut background.
What is called IC50 is the concentration that inhibits the measured activity by half. On to `CCCC(=O)NCc1cc2cc(Cl)cc(Cn3cnc4c(N)ncnc43)c2[nH]1` [Example 98, N-({7-[(6-amino-9H-purin-9-yl)methyl]-5-chloro-1H-indol-2-yl}methyl)butanamide], for which the concentration for half-maximal inhibition (IC50) turned out to be 11.8 µM.
Consider `N#Cc1cccc(-c2ccc(Cn3cnc4c(N)ncnc43)c3[nH]c(CN)cc23)c1` [Example 83, 3-{2-(aminomethyl)-7-[(6-amino-9H-purin-9-yl)methyl]-1H-indol-4-yl}benzonitrile], for which the concentration for half-maximal inhibition (IC50) came to 0.831 µM.
For `Nc1ncnc2c1ncn2Cc1cc(Cl)cc2cc(CNC(=O)[C@@H]3CCCN3)[nH]c12` [Example 115, (2S)—N-({7-[(6-amino-9H-purin-9-yl)methyl]-5-chloro-1H-indol-2-yl}methyl)pyrrolidine-2-carboxamide] the value was 3.53 µM; for `CN(C)c1ccc(C(=O)NCc2cc3cc(Cl)cc(Cn4cnc5c(N)ncnc54)c3[nH]2)cc1` [Example 302, N-({7-[(6-amino-9H-purin-9-yl)methyl]-5-chloro-1H-indol-2-yl}methyl)-4-(dimethylamino)benzamide], over 50 µM; for `NCc1cc2cc(-c3ccc(S(N)(=O)=O)cc3)cc(Cn3cnc4c(N)ncnc43)c2[nH]1` [Example 29, 4-{2-(aminomethyl)-7-[(6-amino-9H-purin-9-yl)methyl]-1H-indol-5-yl}benzenesulfonamide], 0.252 µM.
For `Nc1ncnc2c1ncn2Cc1cc(Cl)cc2cc(CNC(=O)c3ccc4cn[nH]c4c3)[nH]c12` [Example 342, N-({7-[(6-amino-9H-purin-9-yl)methyl]-5-chloro-1H-indol-2-yl}methyl)-1H-indazole-6-carboxamide] the value was 0.947 µM; for `Nc1ncnc2c1ncn2Cc1cc(Cl)cc2cc(CNC(=O)c3cnsc3)[nH]c12` [Example 139, N-({7-[(6-amino-9H-purin-9-yl)methyl]-5-chloro-1H-indol-2-yl}methyl)-1,2-thiazole-4-carboxamide], 0.767 µM.
As for `Cc1cccc(C)c1C(=O)NCc1cc2cc(Cl)cc(Cn3cnc4c(N)ncnc43)c2[nH]1` [Example 295, N-({7-[(6-amino-9H-purin-9-yl)methyl]-5-chloro-1H-indol-2-yl}methyl)-2,6-dimethylbenzamide], the concentration for half-maximal inhibition (IC50) is 0.607 µM.
For `CCc1oncc1C(=O)NCc1cc2cc(Cl)cc(Cn3cnc4c(N)ncnc43)c2[nH]1` [Example 181, N-({7-[(6-amino-9H-purin-9-yl)methyl]-5-chloro-1H-indol-2-yl}methyl)-5-ethyl-1,2-oxazole-4-carboxamide] the value was 2.86 µM.
For `COc1ccccc1-c1ccc(Cn2cnc3c(N)ncnc32)c2[nH]c(CN)cc12` [Example 80, 9-{[2-(aminomethyl)-4-(2-methoxyphenyl)-1H-indol-7-yl]methyl}-9H-purin-6-amine], the concentration for half-maximal inhibition (IC50) came out at 1.85 µM.
Turning to `CN(C)C(=O)c1ccc(-c2cc(Cn3cnc4c(N)ncnc43)c3[nH]c(CN)cc3c2)cc1` [Example 47, 4-{2-(aminomethyl)-7-[(6-amino-9H-purin-9-yl)methyl]-1H-indol-5-yl}-N,N-dimethylbenzamide], the IC50 is 0.354 µM.
For `Cc1n[nH]c2ncc(C(=O)NCc3cc4cc(Cl)cc(Cn5cnc6c(N)ncnc65)c4[nH]3)cc12` [Example 353, N-({7-[(6-amino-9H-purin-9-yl)methyl]-5-chloro-1H-indol-2-yl}methyl)-3-methyl-1H-pyrazolo[3,4-b]pyridine-5-carboxamide] the value was over 50 µM.
In the case of `COC1CCC(C(=O)NCc2cc3cc(Cl)cc(Cn4cnc5c(N)ncnc54)c3[nH]2)CC1` (centres unmarked) [Example 134, N-({7-[(6-amino-9H-purin-9-yl)methyl]-5-chloro-1H-indol-2-yl}methyl)-4-methoxycyclohexanecarboxamide] it was 1.27 µM; in that of `Cc1cccc(CNCc2cc3cc(Cl)cc(Cn4cnc5c(N)ncnc54)c3[nH]2)c1F` [Example 245, 9-[(5-chloro-2-{[(2-fluoro-3-methylbenzyl)amino]methyl}-1H-indol-7-yl)methyl]-9H-purin-6-amine], 2.03 µM.
`Nc1ncnc2c1ncn2Cc1cc(Cl)cc2cc(CNC(=O)c3ccccc3)[nH]c12` [Example 220, N-({7-[(6-amino-9H-purin-9-yl)methyl]-5-chloro-1H-indol-2-yl}methyl)benzamide]: the IC50 was 4.05 µM.
For `CS(=O)(=O)Nc1ccc(-c2cc(Cn3cnc4c(N)ncnc43)c3[nH]c(CN)cc3c2)cc1` [Example 41, N-(4-{2-(aminomethyl)-7-[(6-amino-9H-purin-9-yl)methyl]-1H-indol-5-yl}phenyl)methanesulfonamide] the value was 0.236 µM; for `CN(C)C(=O)c1cccc(-c2cc(Cn3cnc4c(N)ncnc43)c3[nH]c(CN)cc3c2)c1` [Example 48, 3-{2-(aminomethyl)-7-[(6-amino-9H-purin-9-yl)methyl]-1H-indol-5-yl}-N,N-dimethylbenzamide], 1.33 µM; for `Cn1ccc2ccc(C(=O)NCc3cc4cc(Cl)cc(Cn5cnc6c(N)ncnc65)c4[nH]3)cc21` [Example 365], 1.88 µM.
As for `Cc1cnc(C(=O)NCc2cc3cc(Cl)cc(Cn4cnc5c(N)ncnc54)c3[nH]2)cn1` [Example 205, N-({7-[(6-amino-9H-purin-9-yl)methyl]-5-chloro-1H-indol-2-yl}methyl)-5-methylpyrazine-2-carboxamide], the IC50 was 3.43 µM.
As for `Nc1ncnc2c1ncn2Cc1cc(Cl)cc2cc(CNCc3ccccc3Br)[nH]c12` [Example 208, 9-[(2-{[(2-bromobenzyl)amino]methyl}-5-chloro-1H-indol-7-yl)methyl]-9H-purin-6-amine], the concentration for half-maximal inhibition (IC50) was found to be 1.89 µM.
In the case of `Cc1nc2c(cnn2C(C)C)cc1C(=O)NCc1cc2cc(Cl)cc(Cn3cnc4c(N)ncnc43)c2[nH]1` [Example 377, N-({7-[(6-amino-9H-purin-9-yl)methyl]-5-chloro-1H-indol-2-yl}methyl)-6-methyl-1-(propan-2-yl)-1H-pyrazolo[3,4-b]pyridine-5-carboxamide] it was 2.71 µM; in that of `Nc1ncnc2c1ncn2Cc1cc(Cl)cc2cc(CNC(=O)c3c(F)cccc3Cl)[nH]c12` [Example 227, N-({7-[(6-amino-9H-purin-9-yl)methyl]-5-chloro-1H-indol-2-yl}methyl)-2-chloro-6-fluorobenzamide], 0.79 µM; in that of `Nc1ncnc2c1ncn2Cc1cc(Cl)cc2cc(CNC(=O)c3ccns3)[nH]c12` [Example 137, N-({7-[(6-amino-9H-purin-9-yl)methyl]-5-chloro-1H-indol-2-yl}methyl)-1,2-thiazole-5-carboxamide], 2.04 µM.
Take `CCc1ccccc1C(=O)NCc1cc2cc(Cl)cc(Cn3cnc4c(N)ncnc43)c2[nH]1` [Example 296, N-({7-[(6-amino-9H-purin-9-yl)methyl]-5-chloro-1H-indol-2-yl}methyl)-2-ethylbenzamide]: the half-inhibitory concentration (IC50) is 0.623 µM.
Turning to `Cn1ncc2ccc(C(=O)NCc3cc4cc(Cl)cc(Cn5cnc6c(N)ncnc65)c4[nH]3)cc21` [Example 360, N-({7-[(6-amino-9H-purin-9-yl)methyl]-5-chloro-1H-indol-2-yl}methyl)-1-methyl-1H-indazole-6-carboxamide], the 50% inhibitory concentration (IC50) was 0.747 µM.
For `Cc1nn(C)cc1C(=O)NCc1cc2cc(Cl)cc(Cn3cnc4c(N)ncnc43)c2[nH]1` [Example 184, N-({7-[(6-amino-9H-purin-9-yl)methyl]-5-chloro-1H-indol-2-yl}methyl)-1,3-dimethyl-1H-pyrazole-4-carboxamide] the value was 0.84 µM; for `Nc1ncnc2c1ncn2Cc1cc(Cl)cc2cc(CNC(=O)c3cnc4[nH]cnc4c3)[nH]c12` [Example 333, N-({7-[(6-amino-9H-purin-9-yl)methyl]-5-chloro-1H-indol-2-yl}methyl)-3H-imidazo[4,5-b]pyridine-6-carboxamide], 1.7 µM.
As for `NCc1cc2cc(-c3ccncc3)cc(Cn3cnc4c(N)ncnc43)c2[nH]1` [Example 21, 9-{[2-(aminomethyl)-5-(pyridin-4-yl)-1H-indol-7-yl]methyl}-9H-purin-6-amine], the IC50 was 0.78 µM.
Consider `COc1ccc(-c2cc(Cn3cnc4c(N)ncnc43)c3[nH]c(CN)cc3c2)cn1` [Example 28, 9-{[2-(aminomethyl)-5-(6-methoxypyridin-3-yl)-1H-indol-7-yl]methyl}-9H-purin-6-amine], for which the IC50 came out at 0.426 µM.
Take `NCc1cc2c(C3=CCCC3)ccc(Cn3cnc4c(N)ncnc43)c2[nH]1` [Example 67, 9-{[2-(aminomethyl)-4-(cyclopent-1-en-1-yl)-1H-indol-7-yl]methyl}-9H-purin-6-amine]: the half-maximal inhibitory concentration (IC50) is 0.2 µM.
Turning to `COc1ccc(-c2cc(Cn3cnc4c(N)ncnc43)c3[nH]c(CN)cc3c2)cc1` [Example 34, 9-{[2-(aminomethyl)-5-(4-methoxyphenyl)-1H-indol-7-yl]methyl}-9H-purin-6-amine], the IC50 worked out at 0.723 µM.
For `NCc1cc2cc(C3=CCOCC3)cc(Cn3cnc4c(N)ncnc43)c2[nH]1` [Example 12, 9-{[2-(aminomethyl)-5-(3,6-dihydro-2H-pyran-4-yl)-1H-indol-7-yl]methyl}-9H-purin-6-amine] the value was 0.334 µM; for `Cc1ccc(-c2cc(Cn3cnc4c(N)ncnc43)c3[nH]c(CNC(=O)c4c(C)noc4C)cc3c2)cc1` [Example 167, N-({7-[(6-amino-9H-purin-9-yl)methyl]-5-(4-methylphenyl)-1H-indol-2-yl}methyl)-3,5-dimethyl-1,2-oxazole-4-carboxamide], 0.225 µM.
For `Cc1ccc(-c2cc(Cn3cnc4c(N)ncnc43)c3[nH]c(CN)cc3c2)cc1` [Example 30, 9-{[2-(aminomethyl)-5-(4-methylphenyl)-1H-indol-7-yl]methyl}-9H-purin-6-amine] the value was 1.17 µM; for `C=CC(=O)NCc1cc2cc(Cl)cc(Cn3cnc4c(N)ncnc43)c2[nH]1` [Example 93, N-({7-[(6-amino-9H-purin-9-yl)methyl]-5-chloro-1H-indol-2-yl}methyl)prop-2-enamide], 9.73 µM.
